From PMC8877291, “Design and Synthesis of Arylpiperazine Serotonergic/Dopaminergic Ligands with Neuroprotective Properties” (Molecules, 2022) come the findings set out here.

SMILES strings stand for the structures.

Series [1] addresses T1, serotonin 5-HT1A receptor (Homo sapiens, UniProt P08908).
T1 construct: expressed in transfected cells
T1 sequence (P08908 1-422): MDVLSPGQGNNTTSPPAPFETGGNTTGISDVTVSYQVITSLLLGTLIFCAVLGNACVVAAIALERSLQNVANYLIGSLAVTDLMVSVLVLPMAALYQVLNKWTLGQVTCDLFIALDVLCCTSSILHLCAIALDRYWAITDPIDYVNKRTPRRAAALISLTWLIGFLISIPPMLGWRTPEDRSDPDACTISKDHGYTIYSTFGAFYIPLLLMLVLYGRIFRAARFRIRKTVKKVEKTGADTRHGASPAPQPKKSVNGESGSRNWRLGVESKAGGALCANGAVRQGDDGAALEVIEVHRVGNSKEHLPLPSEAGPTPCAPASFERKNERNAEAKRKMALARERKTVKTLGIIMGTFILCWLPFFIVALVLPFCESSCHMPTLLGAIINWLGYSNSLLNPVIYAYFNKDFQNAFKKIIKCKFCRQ
Briefly: 5-HT1A receptor radioligand competition binding ([3H]-8-Hydroxy-DPAT). The conditions noted are these: human cloned receptor, HEK293 membranes, 1 nM [3H]-8-Hydroxy-DPAT; ± S.E.M., n = 3 in duplicate; read-out: Affinity Ki 5-HT1A. Here is the method: (§1) As a first step, competition radioligand binding assays were carried out for all the compounds at the single concentration of 10 µM, on membrane preparations from stable cell lines heterologously expressing the human cloned 5-HT1A, 5-HT2A, or 5-HT7 receptors. […] For the affinity determination at dopamine receptor subtypes, membrane fractions of human dopamine D2s, D3, D1, and D5 receptor-expressing cells were used. They were co-incubated with [^3H]spiperone (for D2s and D3 receptor) or [^3H]SCH23390 (for D1 and D5 receptor) and appropriate concentrations of test compound for 120 min. Bound radioligand was separated from the free ligand using filtration. Radioactivity was measured by liquid scintillation counting.
The affinity of the compounds for serotonin 5-HT1A receptor was evaluated in membrane preparations from HEK293 cells stably expressing the human cloned receptor, following previously described procedures with minor modifications. Competition binding experiments were performed using 1 nM [^3H]-8-Hydroxy-DPAT (1 mCi/mL, PerkinElmer NET929250UC) as radioligand. Nonspecific binding was assessed in the presence of 10 µM serotonin. […] Assays were carried out in duplicate in 96-well assay plates, in assay buffer (50 mM Tris-HCl, 5 mM MgSO4, pH = 7.4). Assay mixtures were incubated at 37 °C for 120 min, followed by filtration through GF/C glass filter plates, and washed with ice-cold wash buffer (50 mM Tris-HCl, pH = 7.4).

For series [2], the target named is T2, serotonin 5-HT2A receptor (Homo sapiens, UniProt P28223).
T2 construct: expressed in transfected cells
T2 sequence (P28223 whole entry): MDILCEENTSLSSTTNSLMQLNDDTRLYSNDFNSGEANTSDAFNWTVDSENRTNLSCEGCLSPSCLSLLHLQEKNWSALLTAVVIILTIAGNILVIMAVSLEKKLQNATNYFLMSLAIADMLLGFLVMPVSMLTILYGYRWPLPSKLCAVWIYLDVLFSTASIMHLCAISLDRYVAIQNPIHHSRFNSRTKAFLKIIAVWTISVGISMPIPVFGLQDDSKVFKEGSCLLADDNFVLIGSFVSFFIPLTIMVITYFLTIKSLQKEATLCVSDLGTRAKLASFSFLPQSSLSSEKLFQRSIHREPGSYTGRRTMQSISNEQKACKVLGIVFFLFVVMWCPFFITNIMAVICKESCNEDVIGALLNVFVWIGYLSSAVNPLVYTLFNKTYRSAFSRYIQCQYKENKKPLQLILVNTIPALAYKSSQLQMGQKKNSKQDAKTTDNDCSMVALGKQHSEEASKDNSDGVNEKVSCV
The experiment in a line: 5-HT2A receptor radioligand competition binding ([3H]-ketanserin). The note with it: human cloned receptor, CHO-K1 membranes, 1 nM [3H]-ketanserin; ± S.E.M., n = 3 in duplicate; read-out: Affinity Ki 5-HT2A. Background: Loss of bound radioactivity is the signal in a displacement assay; it reports binding, not function.

The target in series [3] is T3, serotonin 5-HT7 receptor (5-HT7A) (Homo sapiens, UniProt P34969).
T3 construct: expressed in transfected cells
T3 sequence (P34969 1-445 isoform P34969-2): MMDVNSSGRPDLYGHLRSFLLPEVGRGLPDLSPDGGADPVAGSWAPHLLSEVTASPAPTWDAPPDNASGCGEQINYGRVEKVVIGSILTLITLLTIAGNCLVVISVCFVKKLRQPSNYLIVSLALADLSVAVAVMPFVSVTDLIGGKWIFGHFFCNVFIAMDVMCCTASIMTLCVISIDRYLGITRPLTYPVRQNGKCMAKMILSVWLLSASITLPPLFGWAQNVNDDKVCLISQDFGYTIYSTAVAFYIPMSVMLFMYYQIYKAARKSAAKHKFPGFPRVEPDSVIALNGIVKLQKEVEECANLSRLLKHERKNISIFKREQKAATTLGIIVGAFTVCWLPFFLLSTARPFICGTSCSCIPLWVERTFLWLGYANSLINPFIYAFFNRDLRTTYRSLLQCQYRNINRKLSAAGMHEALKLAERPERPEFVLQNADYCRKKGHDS
Briefly: 5-HT7 receptor radioligand competition binding ([3H]-SB269970). The note with it: human cloned 5-HT7A receptor, HEK293 membranes, 2 nM [3H]-SB269970; ± S.E.M., n = 3 in duplicate; read-out: Affinity Ki 5-HT7. Here is the method:
as §1
The affinity of the compounds for serotonin 5-HT7 receptor was evaluated in membrane preparations from HEK293 cells stably expressing the human cloned 5-HT7A receptor, following previously described procedures with minor modifications. Competition binding experiments were performed using 2 nM [^3H]-SB269970 (34.5 Ci/mmol, 0.25 mCi/mL, Perkin Elmer NET1198U250UC) as radioligand. […] Methiothepine was included in the assays as reference compound. Assays were carried out in duplicate in 96-well assay plates, in assay buffer (50 mM Tris-HCl, 4 mM MgCl2, 1 mM ascorbic acid, 0.1 mM pargyline, pH = 7.4). Assay mixtures were incubated at 37 °C for 60 min, followed by filtration through GF/C glass filter plates, and washing with ice-cold assay buffer. Affinity (equilibrium dissociation constant, Ki) of the compounds was calculated from competition binding curves as indicated above.

For a further series, the target named is T4, dopamine D1 receptor (Homo sapiens, UniProt P21728).
T4 construct: expressed in transfected cells
T4 sequence (P21728 whole entry): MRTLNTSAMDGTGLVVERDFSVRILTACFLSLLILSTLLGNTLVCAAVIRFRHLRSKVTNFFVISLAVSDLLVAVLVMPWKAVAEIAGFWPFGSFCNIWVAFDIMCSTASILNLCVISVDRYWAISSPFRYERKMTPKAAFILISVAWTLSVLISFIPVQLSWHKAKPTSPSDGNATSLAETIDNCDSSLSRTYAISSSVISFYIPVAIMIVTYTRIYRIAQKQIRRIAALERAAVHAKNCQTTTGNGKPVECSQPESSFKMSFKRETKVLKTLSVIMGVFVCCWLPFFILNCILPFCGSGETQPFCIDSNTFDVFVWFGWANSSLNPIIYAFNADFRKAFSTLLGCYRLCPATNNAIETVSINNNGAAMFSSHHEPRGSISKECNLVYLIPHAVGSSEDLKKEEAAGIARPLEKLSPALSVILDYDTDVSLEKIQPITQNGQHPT
Briefly: Dopamine D1 receptor competition binding ([3H]-SCH23390). The conditions noted are these: HEK-293 membranes, [3H]-SCH23390 0.3 nM, mean (CI 95%), read-out: Affinity Ki D1. The procedure:
as §1, with “The final compounds were tested for their affinity at serotonin 5-HT1A, 5-HT2A, and 5-HT7 receptors and at dopamine D1, D2, D3, and D5 receptors. As” for “As”
(§2) The affinity for dopamine D1 and D5 receptors was evaluated in membrane fractions of HEK-293 cells stably expressing the human dopamine D1 or D5 receptor. HEK-293-D1 cells were cultured in DMEM/F12 (15 mM HEPES, 1.2 g/L NaHCO3) with 10% (v/v) FBS and 1% (v/v) L-glutamine. HEK-293-D5 cells were cultured in DMEM/F12 (with L-glutamine, 1.2 g/L NaHCO3) with 20% (v/v) FBS. Preparation of membrane fractions and radioligand competition assays were performed as previously described. Briefly, membrane fractions were co-incubated with [^3H]-SCH23390 (0.3 nM) and different concentrations of test compound for 120 min at room temperature. Fluphenazine (100 µM) was used to determine non-specific binding and as reference compound.
(§3) Data of at least three independent experiments in triplicate were analyzed using GraphPad Prism 8.1 (San Diego, CA, USA). Binding curves were fitted to a non-linear regression model (one-site competition). Ki values were calculated from IC50 values using the Cheng–Prusoff equation. The statistical calculations were performed on –log(Ki).

The next series concerns the target T5, dopamine D5 receptor (Homo sapiens, UniProt P21918).
T5 construct: expressed in transfected cells
Briefly: Dopamine D5 receptor competition binding ([3H]-SCH23390). The note with it: HEK-293 membranes, [3H]-SCH23390 0.3 nM, mean (CI 95%), read-out: Affinity Ki D5. Here is the method: as §1, with “The final compounds were tested for their affinity at serotonin 5-HT1A, 5-HT2A, and 5-HT7 receptors and at dopamine D1, D2, D3, and D5 receptors. As” for “As”
as §2, §3

A short description of series [4]: Stability assay in rat liver microsomes. Type of series: in vitro ADME. The conditions noted are these: pH 7.4; rat liver microsomes, 30 min incubation, NADPH-regenerating system, 10 μM; read-out: Metabolic Stability (percentage of recovery of the parent compound). Here is the method: To evaluate the susceptibility to first-pass oxidative metabolism, the leading cause of metabolic degradation in vivo [17] the target compounds were incubated with rat liver microsomes. The turnover of the parent compound was assessed as the percentage of the parent compound recovered after 30 min of incubation with microsomes in the presence of an NADPH-regenerating system.
Test compounds were pre-incubated at 37 °C with rat liver microsomes (Tebu-Bio, Milan, Italy) (1.0 mg/mL microsomal protein) at 10 μM final concentration in 100 mM potassium phosphate buffer (pH 7.4) for 10 min. Metabolic reactions were initiated by the addition of the NADPH regenerating system (containing 10 mM NADP, 50 mM glucose-6-phosphate, and 10 unit/mL glucose-6-phosphate dehydrogenase, final glucose-6-phosphate dehydrogenase concentration, 1 unit/mL). After 30 min incubation, the reaction mixture was quenched by adding an equal volume of cold acetonitrile containing the internal standard. A test compound incubated with microsomes without NADPH regenerating system was included. Quenched samples were centrifuged at 4500 rpm for 15 min and the supernatants were injected for quantification analysis. Samples (100 μL) were analyzed by using an Agilent 1260 Infinity Binary LC System equipped with a diode array detector (Open Lab software was used to analyze the chromatographic data) and a Phenomenex Gemini C-18 column (250 mm × 4.6 mm, 5 μm particle size). The samples were eluted using CH3CN/20 mM ammonium formate pH 5.5 (7:3, v/v) as eluent (volumetric flow rate =1 mL/min). Concentrations were quantified by measuring the area under the peak.
The percentage of the parent compound remaining after a 30-min incubation was calculated according to the equation:% of parent compound remaining after 30 min = Cparent/Ccontrol × 100(1) where Cparent is ligand concentration after incubation with microsome fraction and NADPH regenerating system and Ccontrol is ligand concentration after incubation with microsome fraction only.
For orientation: Liver microsomes are a subcellular fraction often used to study metabolism.

The next series concerns the target dopamine D3 receptor (Homo sapiens, UniProt P35462). The experiment in a line: Dopamine D3 receptor competition binding ([3H]spiperone).
The next series addresses dopamine D2s receptor (Homo sapiens, UniProt P14416). Briefly: Dopamine D2s receptor competition binding ([3H]spiperone).

Sequence of dopamine D2s receptor (P14416 1-414 isoform P14416-2): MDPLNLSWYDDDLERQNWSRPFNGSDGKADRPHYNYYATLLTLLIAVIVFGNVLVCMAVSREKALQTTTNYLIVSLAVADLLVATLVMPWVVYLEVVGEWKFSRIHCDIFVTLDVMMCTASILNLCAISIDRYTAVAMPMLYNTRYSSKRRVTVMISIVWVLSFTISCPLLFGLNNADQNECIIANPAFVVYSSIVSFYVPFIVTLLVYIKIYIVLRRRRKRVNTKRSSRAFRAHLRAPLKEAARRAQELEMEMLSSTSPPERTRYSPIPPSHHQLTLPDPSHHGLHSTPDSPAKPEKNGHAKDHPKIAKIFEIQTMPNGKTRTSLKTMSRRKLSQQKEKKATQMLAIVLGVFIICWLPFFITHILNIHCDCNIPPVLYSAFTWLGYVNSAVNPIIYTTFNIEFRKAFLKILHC
T5 sequence (P21918 whole entry): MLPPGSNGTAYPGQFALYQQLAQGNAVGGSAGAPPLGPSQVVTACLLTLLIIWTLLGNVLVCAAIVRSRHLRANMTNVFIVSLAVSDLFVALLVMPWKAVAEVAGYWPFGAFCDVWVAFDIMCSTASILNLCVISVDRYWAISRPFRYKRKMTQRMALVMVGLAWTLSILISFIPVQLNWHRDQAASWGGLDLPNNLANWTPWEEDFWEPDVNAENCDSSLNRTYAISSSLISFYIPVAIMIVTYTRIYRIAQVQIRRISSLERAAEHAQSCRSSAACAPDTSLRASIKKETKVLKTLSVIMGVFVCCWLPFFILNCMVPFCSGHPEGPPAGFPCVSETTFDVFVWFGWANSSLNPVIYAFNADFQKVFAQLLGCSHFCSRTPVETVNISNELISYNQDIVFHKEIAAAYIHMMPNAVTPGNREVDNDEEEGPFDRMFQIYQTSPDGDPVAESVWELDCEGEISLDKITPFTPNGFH
Sequence of dopamine D3 receptor (P35462 whole entry): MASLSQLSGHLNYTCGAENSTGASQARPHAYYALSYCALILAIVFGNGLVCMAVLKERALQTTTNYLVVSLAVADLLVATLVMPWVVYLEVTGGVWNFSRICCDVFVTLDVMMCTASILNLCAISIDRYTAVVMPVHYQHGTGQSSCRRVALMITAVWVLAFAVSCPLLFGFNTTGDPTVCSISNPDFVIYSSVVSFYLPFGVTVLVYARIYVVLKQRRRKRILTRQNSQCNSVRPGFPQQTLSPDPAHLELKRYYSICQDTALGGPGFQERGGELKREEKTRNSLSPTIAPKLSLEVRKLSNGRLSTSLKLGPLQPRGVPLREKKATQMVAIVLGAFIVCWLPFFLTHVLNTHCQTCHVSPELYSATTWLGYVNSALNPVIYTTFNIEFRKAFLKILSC
Description for dopamine D2s receptor: (§4) Competition binding experiments at dopamine D2s and D3 receptor were performed to determine the affinity of the compounds. […] Membrane preparations of transfected CHO-K1 cells stably expressing the human D2s or D3 receptor were performed according to Bautista-Aguilera et al. [26]. The competition binding experiments were conducted as previously reported [26, 27]. Briefly, membrane fractions (D2sR: 25 µg/200 µL; D3R: 20 µg/200 µL) were incubated with [^3H]spiperone (0.2 nM) and test compound for 120 min at room temperature. […] Non-specific binding was determined in the presence of 10 µM haloperidol. Haloperidol was also used as reference compound. Separation of the bound ligand from the free ligand was conducted by filtration through GF/B filters using deionized water.
Description for dopamine D3 receptor: as §4

Regarding `COc1ccc(-c2cc(F)ccc2N2CCN(CCCn3ncc(=O)n(C)c3=O)CC2)cc1` [Compound 9a, 2-(3-(4-(5-Fluoro-4’-methoxy-[1,1’-biphenyl]-2-yl)piperazin-1-yl)propyl)-4-methyl-1,2,4-triazine-3,5(2H,4H)-dione], the Ki in series [1] was 653 ± 95 nM; in series [2], 49.1 ± 12 nM; in series [3] it was 60.8 ± 7.1 nM; at dopamine D1 receptor, 193 nM; at dopamine D5 receptor, 413 nM; at dopamine D3 receptor, above 10000 nM. This molecule gave a Ki on dopamine D2s receptor above 10000 nM. Further, the remaining at 30 min, 10 μM in series [4] was below 3%.

In general, Ki refers to a dissociation constant, usually derived from enzyme kinetics or from competition with a known ligand.
